Experimental data: patent publication US8071735B2, “Cotton event MON 88913 and compositions and methods for detection thereof” (priority 2003, dated 2011)

Experiments:
cotton event MON 88913 = experiment: Field trial, cotton lint yield after glyphosate treatment (10 locations); assay type: in vivo, Gossypium hirsutum
Text: (§1) The field trials were arranged in a randomized split plot design with three replications and three treatments. The events were planted in two row, 30-foot plots. The treatments consisted of unsprayed, 64 oz/A (1.5 lb ae/A) Roundup Ultra® at the 4, 6, 10, 14-node stages, and 96 oz/A (2.25 lb ae/A) Roundup Ultra® at the 4, 6, 10, 14-node stages. A mid-season plant map was completed on ten plants per plot. Boll retention data was collected for the first and second fruiting positions of the first five fruiting nodes that provides a boll retention value scale of 0-10. A plant with a boll retention value equal to or greater than 3 on the 0-10 scale has value as a new glyphosate tolerant plant selection.
(§2) Yield is a measure of boll retention, cotton plants engineered for glyphosate tolerance that retain a substantial number of bolls in the first and second fruiting positions will maintain a yield advantage over cotton plants that are not as glyphosate tolerant. An effective dose of a glyphosate containing herbicide to control weeds in a field of MON 88913 comprises about 4 oz/A and may exceed 128 oz/A depending on the species of weed to be controlled and the stage of weed development. Glyphosate can be mixed with other herbicides to enhance the herbicidal activity against certain weed species.

[1] = system: Roundup Ready cotton event 1445; experiment: as above; assay type: in vivo, Gossypium hirsutum
Text: as §1, §2

[2] = glyphosate 1.5 lb ae/A (64 oz/A Roundup Ultra) at the 4, 6, 10, 14-node stages
[3] = glyphosate 2.25 lb ae/A (96 oz/A Roundup Ultra) at the 4, 6, 10, 14-node stages

Question: With O=C(O)CNCP(=O)(O)O [Glyphosate, N-phosphonomethylglycine] as the molecule, how does the “Yield (lb/A) of 10 Locations, cotton lint” value (“Yield (lb/A) of 10 Locations” for short) (cotton event MON 88913; [2]) read?
Answer: 2587.61 lb/A

Question: And the “Yield (lb/A) of 10 Locations” value (cotton event MON 88913; [3])?
Answer: 2412.3 lb/A

Question: What about the “Yield (lb/A) of 10 Locations” value [1, 2] of the same molecule?
Answer: 1044.19 lb/A

Question: What about the “Yield (lb/A) of 10 Locations” value [1, 3] of the same molecule?
Answer: 831.47 lb/A
